In patent US4552684A, “Dichroic dye and liquid crystalline composition for color display” (Mitsui Toatsu Chemicals, Inc., priority 1983, dated 1985):

Columns and labels:
Assay type in all cases: physicochemical
[1] = color of dye in toluene
[2] = dichroic ratio of dye dissolved in liquid crystals (homogeneously aligned 10 micron cell); conditions: for Dichroic ratio in liquid crystals E-8: Table 1 method: 1.0% by weight dye, 10 micron gap
Method: The dichroic ratio is determined as follows:
The cell was placed in the light path of a spectro-photometer. Straight polarized light parallel to the alignment of the liquid crystals was applied to the cell, and the absorbance ([…] ) was measured. Furthermore, straight polarized light at right angles to the alignment of the liquid crystals was applied, and the absorbance ([…] ) was measured. The dichroic ratio was calculated from the following equation. [formula]

[3] = light fastness (total current after exposure of cell to solar light for 200 hours); conditions: for Light fastness: 0.5% by weight dye in E-8, solar light 200 hours, rectangular wave 6Vp-p, 32 Hz, total current
Method: 0.5% by weight of each dye was dissolved in the liquid crystals E-8, and the solution was sealed into a liquid crystal wall having a gap of 10 microns and including a pair of facing transparent electrodes with an area of 1.0 cm^2. The cell was exposed to solar light for 200 hours. Then, a voltage of a rectangular wave form (6Vp-p, 32 Hz) was applied, and the total current was measured (μA/cm^2).

[4] = solubility of dye in liquid crystals E-8; conditions: for Solubility: in liquid crystals E-8 at 25° C.
Method: This is the solubility (% by weight) of each dye in liquid crystals E-8 (made by Merck & Co.) at 25° C.

[5] = dichroic ratio and maximum absorption wavelength in cyanobiphenyl/cyanoterphenyl liquid crystal mixture
Method: 0.1 Part by weight of the dye No. 8 in Table 1 was dissolved in 10 parts by weight of a liquid crystal mixture composed of 43% of 4-n-pentyl-4'-cyano-biphenyl, 17% of 4-n-propoxy-4'-cyanobiphenyl, 13% of 4-n-pentoxy-4'-cyanobiphenyl, 17% of 4-n-octoxy-4'-cyanobiphenyl and 10% of 4-n-pentyl-4'-cyanoterphenyl. The resulting color liquid crystal mixture was sealed into a glass cell having a gap of 10 microns which had been subjected to homogeneous aligning treatment. The maximum absorption wavelength was 512 nm and the dichroic ratio was 10.2. A display device obtained by sealing this color liquid crystal mixture into a glass liquid crystal display element of the same structure as above including transparent electrodes assumed a red color entirely in the absence of a voltage applied, and when a voltage was applied, only the part of the electrodes became nearly colorless, thus showing a good contrast.

[6] = maximum absorption wavelength of dye in liquid crystals
Method: The crude dye was purified by the same column chromatographic technique as in Example 1 to give a blue dye having a melting point of 155° to 157° C. (Dye No.19 in Table 1). The dichroic ratio of the dye was measured in the liquid crystals E-8 in the same way as described above with regard to Table 1, and found to be 10.3 (λmax 616 nm). […] When liquid crystals ZLI-1840 were used instead of the liquid crystals E-8, the dichroic ratio of the dye was 10.8 (λmax 612 nm). When liquid crystals ZLI-1275 were used, the dichroic ratio was 10.1 (λmax 616 nm).

| Color in toluene [1] | Dichroic ratio in liquid crystals E-8 [2] | Compound | further results |
| --- | --- | --- | --- |
| Reddish violet | 8.6 | CCCCCCCC1CCC(c2nc3c(N)c4c(c(O)c3o2)C(=O)c2ccc(C(=O)OCCCC)cc2C4=O)CC1 (centres unmarked) [Dye No. 24] |  |
| Reddish violet | 11.6 | CC(C)(C)CC(C)(C)[C@H]1CC[C@H](c2nc3c(N)c4c(c(O)c3o2)C(=O)c2c(O)cccc2C4=O)CC1 [Dye No. 22] |  |
| Blue | 9.2 | CCCCCCCC1CCC(c2nc3cc4c(c(O)c3o2)C(=O)c2c(NC)ccc(NC)c2C4=O)CC1 (centres unmarked) [Dye No. 20] |  |
| Blue | 9.2 | CCCCc1ccc(OC(=O)C2CCC(c3nc4c(N)c5c(c(O)c4o3)C(=O)c3c(N)ccc(O)c3C5=O)CC2)cc1 (centres unmarked) [Dye No. 27] |  |
| Orange | 8.1 | CCCCCC1CCC(c2nc3cc4c(c(O)c3o2)C(=O)c2ccc(CC(C)C)c(O)c2C4=O)CC1 (centres unmarked) [Dye No. 21] |  |
| Reddish violet | 8.2 | CCCCOC(=O)C1CCC(c2nc3c(N)c4c(c(O)c3o2)C(=O)c2c(O)cccc2C4=O)CC1 (centres unmarked) [Dye No. 23] |  |
| Orange | 8.0 | CCCCc1ccc(OC(=O)C2CCC(c3nc4c(Cl)c5c(c(O)c4o3)C(=O)c3c(Cl)ccc(O)c3C5=O)CC2)cc1 (centres unmarked) [Dye No. 26] |  |
| Reddish violet | 9.3 | CCCCCCCC1CCC(c2nc3c(N)c4c(c(N)c3o2)C(=O)c2ccc(C(=O)OCCCC)cc2C4=O)CC1 (centres unmarked) [Dye No. 25] |  |

Continued, molecule first:

| Compound | Color in toluene [1] | Dichroic ratio in liquid crystals E-8 [2] | further results |
| --- | --- | --- | --- |
| CCCCCCCC1CCC(c2nc3c(O)c4c(c(N)c3o2)C(=O)c2ccccc2C4=O)CC1 (centres unmarked) [Dye No. 16] | Red | 8.0 |  |
| CCCCCC1CCC(c2nc3cc4c(c(NC)c3o2)C(=O)c2ccccc2C4=O)CC1 (centres unmarked) [Dye No. 17] | Orange | 6.9 |  |
| CCCCc1ccc(Nc2cccc3c2C(=O)c2cccc(Nc4ccc(CCCC)cc4)c2C3=O)cc1 [B, reference compound] |  |  | Light fastness [3]: 3.6 μA/cm^2; Solubility [4]: 0.7 % by weight |
| CCCCCOC(=O)C1CCC(c2nc3cc4c(c(O)c3o2)C(=O)c2c(O)ccc(O)c2C4=O)CC1 (centres unmarked) [Dye No. 3] | Orange | 9.3 |  |
| CCCCOCCC1CCC(c2nc3c(Br)c4c(c(O)c3o2)C(=O)c2ccccc2C4=O)CC1 (centres unmarked) [Dye No. 6] | Orange | 6.8 |  |
| CC(C)(C)CC(C)(C)[C@H]1CC[C@H](c2nc3c(N)c4c(c(O)c3o2)C(=O)c2c(O)cccc2C4=O)CC1 [No. 22] |  |  | solubility in liquid crystals E-8 ([4]; liquid crystals E-8, temperature not stated (Example 7)): 4.0%; dichroic ratio ([2]; liquid crystals ZLI-1840): 12.3 |
| CCCCCCCCCC1CCC(c2nc3c(N)c4c(c(O)c3o2)C(=O)c2c(N)cccc2C4=O)CC1 (centres unmarked) [Dye No. 2] | Violet | 8.2 |  |
| CCCCCC1CCC(c2nc3c(N)c4c(c(N)c3o2)C(=O)c2ccccc2C4=O)CC1 (centres unmarked) [Dye No. 10] | Reddish violet | 8.1 |  |
| CCCCCC1CCC(c2nc3c(N)c4c(c(O)c3o2)C(=O)c2ccccc2C4=O)CC1 (centres unmarked) [No. 8] |  |  | Light fastness [3]: 2.0 μA/cm^2; light fastness compared with known dyes ([3]; as in Table 2): higher solubility and light fastness than known dyes A, B and C; dichroic ratio ([5]; 0.1 part dye in 10 parts cyanobiphenyl/cyanoterphenyl mixture (Example 4)): 10.2; maximum absorption wavelength ([5]; cyanobiphenyl/cyanoterphenyl mixture (Example 4)): 512 nm; Solubility [4]: 4.7 % by weight; solubility compared with known dyes A, B and C ([4]; liquid crystals E-8): higher solubility |
| CCCCCCCCCCCCC1CCC(c2nc3c(N)c4c(c(O)c3o2)C(=O)c2ccccc2C4=O)CC1 (centres unmarked) [Dye No. 9] | Red | 9.3 |  |
| CCCCCC1CCC(c2nc3cc4c(c(O)c3s2)C(=O)c2ccccc2C4=O)CC1 (centres unmarked) [Dye No. 11] | Yellow | 8.5 |  |
| CN(C)c1ccc(N=Nc2ccc(N=Nc3ccccc3)cc2)cc1 [A, reference compound] |  |  | Light fastness [3]: 4.2 μA/cm^2; Solubility [4]: 1.1 % by weight |
| CCCCCCCCC1CCC(c2nc3c(N)c4c(c(O)c3o2)C(=O)c2c(N)ccc(O)c2C4=O)CC1 (centres unmarked) [Dye No. 14] | Blue | 10.5 |  |
| CCCCC[C@H]1CC[C@H](c2nc3cc4c(c(O)c3o2)C(=O)c2ccccc2C4=O)CC1 [Dye No. 4] | Yellow | 7.2 |  |
| CC(C)(C)C1CCC(c2nc3cc4c(c(O)c3s2)C(=O)c2ccccc2C4=O)CC1 (centres unmarked) [Dye No. 13] | Yellow | 7.8 |  |
| CC(CCC1CCC(c2nc3c(O)c4c(c(O)c3o2)C(=O)c2ccccc2C4=O)CC1)CC(C)(C)C (centres unmarked) [Dye No. 7] | Orange | 8.1 |  |
| CC(CC[C@H]1CC[C@H](c2nc3c(N)c4c(c(O)c3o2)C(=O)c2c(N)ccc(O)c2C4=O)CC1)CC(C)(C)C (some centres unmarked) [Dye No. 19] | Blue | 10.3 |  |
| CC(CC[C@H]1CC[C@H](c2nc3c(N)c4c(c(O)c3o2)C(=O)c2c(N)ccc(O)c2C4=O)CC1)CC(C)(C)C (some centres unmarked) [No.19] |  |  | λmax ([6]; liquid crystals E-8): 616 nm; λmax ([6]; liquid crystals ZLI-1275): 616 nm; λmax ([6]; liquid crystals ZLI-1840): 612 nm; solubility in E-8 ([4]; liquid crystals E-8, temperature not stated (Example 5)): 7.2 % by weight; dichroic ratio ([2]; liquid crystals ZLI-1275): 10.1; dichroic ratio ([2]; liquid crystals ZLI-1840): 10.8 |
| CCCCC1CCC(c2nc3c(N)c4c(c(O)c3o2)C(=O)c2ccccc2C4=O)CC1 (centres unmarked) [Dye No. 1] | Red | 9.5 |  |
| Nc1c2c(c(O)c3oc(C4CCCCC4)nc13)C(=O)c1ccccc1C2=O [C, reference compound] |  |  | Solubility [4]: 0.4 % by weight |
| CCCCCCCCCC1CCC(c2nc3c(N)c4c(c(O)c3o2)C(=O)c2cc(C)ccc2C4=O)CC1 (centres unmarked) [Dye No. 15] | Red | 10.2 |  |
| CC(C)(C)c1ccc(C2CCC(c3nc4c(N)c5c(c(O)c4o3)C(=O)c3ccccc3C5=O)CC2)cc1 (centres unmarked) [Dye No. 5] | Red | 10.1 |  |
| CCCCCC1CCC(c2nc3c(N)c4c(c(O)c3o2)C(=O)c2ccccc2C4=O)CC1 (centres unmarked) [Dye No. 8] | Red | 9.5 |  |
| CCCCCC1CCC(c2nc3cc4c(c(O)c3o2)C(=O)c2c(O)ccc(O)c2C4=O)CC1 (centres unmarked) [Dye No. 18] | Orange | 9.8 |  |
